# Data taken from patent US12052991B2, “Substituted pyridinyloxybenzenes and salts thereof and use thereof as herbicidal agents” (Bayer Aktiengesellschaft, priority 2018, dated 2024).
# Columns and labels:
# Type in all cases: in vivo
# [1] = tested on: Amaranthus retroflexus (AMARE); test: Herbicidal pre-emergence action, test C (Table C6); settings: visual scoring after about 3 weeks, 100% = plants have died, 0% = like control plants
# Method in brief: (§1)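 After sowing weed seeds into sandy loam and covering them, the soil surface was treated with aqueous WP or EC preparations containing 0.5% additive, 600 L/ha, at 1280 or 320 g/ha. Scoring was visual, in percent against untreated, at about 3 weeks.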
# Setaria viridis (SETVI) [2] = test: Herbicidal post-emergence action (Table B4); settings: 1280 g/ha; rated visually after about 3 weeks; 100% = plants have died, 0% = like control plants
# Method in brief: (§2)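 Application rates of 1280 or 320 g/ha were tested post-emergence on one-leaf-stage greenhouse plants in sandy loam, using WP or EC formulations with 0.5% additive at 600 L/ha. Activity was rated visually against untreated plants about 3 weeks later.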
# [3] = tested on: Abutilon theophrasti (ABUTH); test: Herbicidal post-emergence action (Table B5); settings: rated visually after about 3 weeks, 100% = plants have died, 0% = like control plants
# Method in brief: as §2
# Lolium rigidum (LOLRI) = test: Herbicidal pre-emergence action, test C (Table C2); settings: visual scoring after about 3 weeks, 100% = plants have died, 0% = like control plants
# Method in brief: as §1
# Setaria viridis (SETVI) [4] = test: Herbicidal pre-emergence action, test C (Table C4); settings: visual scoring after about 3 weeks, 100% = plants have died, 0% = like control plants
# Method in brief: as §1
# [5] = tested on: Alopecurus myosuroides (ALOMY); test: Herbicidal post-emergence action (Table B9); settings: rated visually after about 3 weeks, 100% = plants have died, 0% = like control plants
# Method in brief: as §2
# [6] = tested on: harmful plants ABUTH, AMARE, ECHCG, LOLRI, MATIN, POAAN, SETVI, STEME, ALOMY, DIGSA, KCHSC and VERPE; test: Herbicidal post-emergence action, summary of Tables B1-B12; settings: application rate of 1280 or 320 g of active ingredient per hectare; summary in words
# Method in brief: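 Activity scored by eye roughly 3 weeks post-treatment against untreated plants, from 0% (no effect) to 100% (plants dead). Application rates were 1280 or 320 g/ha, as aqueous WP/EC spray plus 0.5% additive at 600 L/ha, onto one-leaf-stage weeds grown 2–3 weeks in sandy loam.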
# [7] = tested on: Amaranthus retroflexus (AMARE); test: Herbicidal post-emergence action (Table B6); settings: visual rating about 3 weeks after treatment, 100% = plants have died, 0% = like control plants
# Method in brief: as §2
# [8] = tested on: Digitaria sanguinalis (DIGSA); test: Herbicidal pre-emergence action, test C (Table C10); settings: visual scoring after about 3 weeks, 100% = plants have died, 0% = like control plants
# Method in brief: as §1
# Stellaria media (STEME) [9] = test: Herbicidal post-emergence action (Table B8); settings: visual rating about 3 weeks after treatment, 100% = plants have died, 0% = like control plants
# Method in brief: as §2
# Poa annua (POAAN) [10] = test: Herbicidal post-emergence action (Table B3); settings: rated visually after about 3 weeks, 100% = plants have died, 0% = like control plants
# Method in brief: as §2
# Stellaria media (STEME) [11] = test: Herbicidal pre-emergence action, test C (Table C8); settings: visual scoring after about 3 weeks, 100% = plants have died, 0% = like control plants
# Method in brief: as §1
# [12] = tested on: Matricaria inodora (MATIN); test: Herbicidal pre-emergence action, test C (Table C7); settings: visual scoring after about 3 weeks, 100% = plants have died, 0% = like control plants
# Method in brief: as §1
# [13] = tested on: Matricaria inodora (MATIN); test: Herbicidal post-emergence action (Table B7); settings: rated visually after about 3 weeks, 100% = plants have died, 0% = like control plants
# Procedure: Seeds of mono- and dicotyledonous weed plants were placed in plastic pots in sandy loam soil (doubly sown with in each case one species of mono- or dicotyledonous weed plants per pot), covered with soil and cultivated in a greenhouse under controlled growth conditions. 2 to 3 weeks after sowing, the test plants were treated at the one-leaf stage. The compounds of the invention, formulated in the form of wettable powders (WP) or as emulsion concentrates (EC), were applied onto the green parts of the plants as aqueous suspension or emulsion with addition of 0.5% additive at a water application rate of 600 liters per hectare (converted). After the test plants had been kept in the greenhouse under optimum growth conditions for about 3 weeks, the activity of the preparations was rated visually in comparison to untreated controls. For example, 100% activity=the plants have died, 0% activity=like control plants. Tables B1 to B12 below show the effects of selected compounds of the general formula (I) according to Table 1 on various harmful plants and an application rate corresponding to 1280 or 320 g/ha, which were obtained by the experimental procedure mentioned above.
# [14] = tested on: harmful plants ABUTH, AMARE, ECHCG, LOLRI, MATIN, POAAN, SETVI, STEME, ALOMY, DIGSA, KCHSC and VERPE; test: Herbicidal pre-emergence action (test C), summary of Tables C1-C12; settings: application rate of 1280 or 320 g of active ingredient per hectare; summary in words
# Method in brief: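 Visual % damage versus untreated plants (0% = like control, 100% = died) was scored after about 3 weeks in the greenhouse. Before emergence, seeds sown in sandy loam got a soil-surface spray of compound as WP or EC plus 0.5% additive, using 600 L/ha water at rates of 1280 or 320 g/ha.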
# Bassia scoparia (KCHSC) [15] = test: Herbicidal post-emergence action (Table B11); settings: visual rating about 3 weeks after treatment, 100% = plants have died, 0% = like control plants
# Method in brief: as §2
# [16] = tested on: Echinochloa crus-galli (ECHCG); test: Herbicidal post-emergence action (Table B1); settings: rated visually after about 3 weeks, 100% = plants have died, 0% = like control plants
# Method in brief: as §2
# Veronica persica (VERPE) [17] = test: Herbicidal pre-emergence action, test C (Table C12); settings: visual scoring vs untreated controls
# Method in brief: as §1
# [18] = tested on: Digitaria sanguinalis (DIGSA); test: Herbicidal post-emergence action (Table B10); settings: visual rating about 3 weeks after treatment, 100% = plants have died, 0% = like control plants
# Method in brief: as §2
# [19] = tested on: Echinochloa crus-galli (ECHCG); test: Herbicidal pre-emergence action, test C (Table C1); settings: dosage 1280 g/ha; visual scoring after about 3 weeks; 100% = plants have died, 0% = like control plants
# Method in brief: as §1
# [20] = tested on: Alopecurus myosuroides (ALOMY); test: Herbicidal pre-emergence action, test C (Table C9); settings: visual scoring after about 3 weeks, 100% = plants have died, 0% = like control plants
# Method in brief: as §1
# Poa annua (POAAN) [21] = test: Herbicidal pre-emergence action, test C (Table C3); settings: visual scoring after about 3 weeks, 100% = plants have died, 0% = like control plants
# Method in brief: as §1
# Bassia scoparia (KCHSC) [22] = test: Herbicidal pre-emergence action, test C (Table C11); settings: dosage 1280 g/ha, visual scoring vs untreated controls
# Method in brief: as §1
# [23] = tested on: Abutilon theophrasti (ABUTH); test: Herbicidal pre-emergence action, test C (Table C5); settings: dosage 1280 g/ha; visual scoring after about 3 weeks; 100% = plants have died, 0% = like control plants
# Method in brief: as §1
# Veronica persica (VERPE) [24] = test: Herbicidal post-emergence action (Table B12); settings: visual rating about 3 weeks after treatment, 100% = plants have died, 0% = like control plants
# Method in brief: as §2
Compound,Pre-emergence action against Amaranthus retroflexus (AMARE) ([1]; dosage 320 g/ha) [%],Pre-emergence action against Amaranthus retroflexus (AMARE) ([1]; dosage 1280 g/ha) [%],Post-emergence action against Abutilon theophrasti (ABUTH) ([3]; 320 g/ha) [%],Post-emergence action against Abutilon theophrasti (ABUTH) ([3]; 1280 g/ha) [%],Pre-emergence action against Setaria viridis (SETVI) (Setaria viridis (SETVI) [4]; dosage 320 g/ha) [%],Pre-emergence action against Setaria viridis (SETVI) (Setaria viridis (SETVI) [4]; dosage 1280 g/ha) [%],Post-emergence action against Alopecurus myosuroides (ALOMY) ([5]; 1280 g/ha) [%],herbicidal activity against the harmful plants of Tables B1-B12 in post-emergence treatment [6],Post-emergence action against Amaranthus retroflexus (AMARE) ([7]; dosage 320 g/ha) [%],Post-emergence action against Amaranthus retroflexus (AMARE) ([7]; dosage 1280 g/ha) [%],Pre-emergence action against Digitaria sanguinalis (DIGSA) ([8]; dosage 1280 g/ha) [%],Post-emergence action against Stellaria media (STEME) (Stellaria media (STEME) [9]; dosage 1280 g/ha) [%],Post-emergence action against Poa annua (POAAN) (Poa annua (POAAN) [10]; 320 g/ha) [%],Post-emergence action against Poa annua (POAAN) (Poa annua (POAAN) [10]; 1280 g/ha) [%],Pre-emergence action against Stellaria media (STEME) (Stellaria media (STEME) [11]; dosage 320 g/ha) [%],Pre-emergence action against Stellaria media (STEME) (Stellaria media (STEME) [11]; dosage 1280 g/ha) [%],Pre-emergence action against Matricaria inodora (MATIN) ([12]; dosage 320 g/ha) [%],Pre-emergence action against Matricaria inodora (MATIN) ([12]; dosage 1280 g/ha) [%],Post-emergence action against Matricaria inodora (MATIN) ([13]; 1280 g/ha) [%],herbicidal activity against the harmful plants of Tables C1-C12 in pre-emergence treatment [14],other results
FC(F)c1cc(-c2c(Br)cccc2Oc2ccc(Cl)cn2)on1 [Example 1-53],100,100,100,100,100,100,100,very good herbicidal activity,100,100,100,90,100,100,100,100,100,100,100,very good herbicidal activity,Post-emergence action against Setaria viridis (SETVI) (Setaria viridis (SETVI) [2]): 100%; Pre-emergence action against Lolium rigidum (LOLRI) (Lolium rigidum (LOLRI); dosage 320 g/ha): 90%; Pre-emergence action against Lolium rigidum (LOLRI) (Lolium rigidum (LOLRI); dosage 1280 g/ha): 100%; Post-emergence action against Bassia scoparia (KCHSC) (Bassia scoparia (KCHSC) [15]; dosage 320 g/ha): 90%; Post-emergence action against Bassia scoparia (KCHSC) (Bassia scoparia (KCHSC) [15]; dosage 1280 g/ha): 100%; Post-emergence action against Echinochloa crus-galli (ECHCG) ([16]; 320 g/ha): 100%; Post-emergence action against Echinochloa crus-galli (ECHCG) ([16]; 1280 g/ha): 100%; Pre-emergence action against Veronica persica (VERPE) (Veronica persica (VERPE) [17]; dosage 320 g/ha): 100%; Pre-emergence action against Veronica persica (VERPE) (Veronica persica (VERPE) [17]; dosage 1280 g/ha): 100%; Post-emergence action against Digitaria sanguinalis (DIGSA) ([18]; dosage 320 g/ha): 100%; Post-emergence action against Digitaria sanguinalis (DIGSA) ([18]; dosage 1280 g/ha): 100%; Pre-emergence action against Echinochloa crus-galli (ECHCG) [19]: 90%; Pre-emergence action against Alopecurus myosuroides (ALOMY) ([20]; dosage 320 g/ha): 100%; Pre-emergence action against Alopecurus myosuroides (ALOMY) ([20]; dosage 1280 g/ha): 100%; Pre-emergence action against Poa annua (POAAN) (Poa annua (POAAN) [21]; dosage 320 g/ha): 100%; Pre-emergence action against Poa annua (POAAN) (Poa annua (POAAN) [21]; dosage 1280 g/ha): 100%
Cc1cc(F)c(-c2cc(C(F)F)no2)c(Oc2ncc(Cl)cc2F)c1 [Example 1-89],100,100,100,100,100,100,100,very good herbicidal activity,100,100,100,100,100,100,90,90,90,90,100,very good herbicidal activity,Post-emergence action against Alopecurus myosuroides (ALOMY) ([5]; 320 g/ha): 100%; Pre-emergence action against Digitaria sanguinalis (DIGSA) ([8]; dosage 320 g/ha): 90%; Post-emergence action against Stellaria media (STEME) (Stellaria media (STEME) [9]; dosage 320 g/ha): 100%; Post-emergence action against Matricaria inodora (MATIN) ([13]; 320 g/ha): 100%; Post-emergence action against Bassia scoparia (KCHSC) (Bassia scoparia (KCHSC) [15]; dosage 320 g/ha): 90%; Post-emergence action against Bassia scoparia (KCHSC) (Bassia scoparia (KCHSC) [15]; dosage 1280 g/ha): 100%; Pre-emergence action against Bassia scoparia (KCHSC) (Bassia scoparia (KCHSC) [22]): 90%; Pre-emergence action against Veronica persica (VERPE) (Veronica persica (VERPE) [17]; dosage 1280 g/ha): 90%; Pre-emergence action against Abutilon theophrasti (ABUTH) [23]: 90%; Post-emergence action against Digitaria sanguinalis (DIGSA) ([18]; dosage 1280 g/ha): 100%; Post-emergence action against Veronica persica (VERPE) (Veronica persica (VERPE) [24]; dosage 320 g/ha): 100%; Post-emergence action against Veronica persica (VERPE) (Veronica persica (VERPE) [24]; dosage 1280 g/ha): 100%; Pre-emergence action against Alopecurus myosuroides (ALOMY) ([20]; dosage 1280 g/ha): 100%; Pre-emergence action against Poa annua (POAAN) (Poa annua (POAAN) [21]; dosage 320 g/ha): 90%; Pre-emergence action against Poa annua (POAAN) (Poa annua (POAAN) [21]; dosage 1280 g/ha): 100%
